US8168651B2, “Protein kinase modulators” (Cylene Pharmaceuticals, Inc., priority 2008, dated 2012)
Like-named read-outs stand apart in the source and are kept apart here.

Legend:
[1] = target: recombinant human CK2 (Homo sapiens (Human), UniProt P68400); assay: CK2 assay (cell-free, 33P-ATP filter plate); assay type: biochemical; conditions: 500 nM compound, read-out: CK2: % inh 500 nM
[2] = test system: HCT-116 human colorectal carcinoma cells; assay: Cell-proliferation assay using Alamar Blue dye; assay type: cell-based; conditions: Homo sapiens;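 further: cells exposed to compound for about 4 days, then Alamar Blue added and dye fluorescence read after about 4 h, compared with medium-only control wells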
[3] = target: recombinant human PIM1 (Homo sapiens (Human), UniProt P11309); assay: PIM-1 kinase activity in cell-free in vitro assay; assay type: biochemical; conditions: for inhibition at 0.5 µM: 500 nM compound, read-out: PIM-1: % inh 500 nM
recombinant human PIM1, sequence (P11309 whole entry): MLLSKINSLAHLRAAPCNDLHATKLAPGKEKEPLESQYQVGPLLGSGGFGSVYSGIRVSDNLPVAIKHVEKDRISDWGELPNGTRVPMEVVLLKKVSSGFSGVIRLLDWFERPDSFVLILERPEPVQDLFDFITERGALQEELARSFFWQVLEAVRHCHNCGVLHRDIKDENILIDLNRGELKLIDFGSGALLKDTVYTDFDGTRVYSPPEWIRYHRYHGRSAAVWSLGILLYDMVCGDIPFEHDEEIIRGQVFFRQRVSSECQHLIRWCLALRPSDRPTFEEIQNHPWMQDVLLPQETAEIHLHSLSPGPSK

[4] = test system: K-562; assay: Cell proliferation modulatory activity, K-562; assay type: cell-based; conditions: Homo sapiens, K562; K-562 cells
[5] = test system: MV-4-11; assay: Cell proliferation modulatory activity, MV-4-11; assay type: cell-based; conditions: Homo sapiens, MV4-11; MV-4-11 cells
[6] = HCT-116, HCT-116, second column, read-out: HCT-116 (uM), cell proliferation modulatory activity
[7] = HCT-116, second HCT-116 column (c8), read-out: HCT-116 (uM) cell proliferation modulatory activity

recombinant human CK2, sequence (P68400 whole entry): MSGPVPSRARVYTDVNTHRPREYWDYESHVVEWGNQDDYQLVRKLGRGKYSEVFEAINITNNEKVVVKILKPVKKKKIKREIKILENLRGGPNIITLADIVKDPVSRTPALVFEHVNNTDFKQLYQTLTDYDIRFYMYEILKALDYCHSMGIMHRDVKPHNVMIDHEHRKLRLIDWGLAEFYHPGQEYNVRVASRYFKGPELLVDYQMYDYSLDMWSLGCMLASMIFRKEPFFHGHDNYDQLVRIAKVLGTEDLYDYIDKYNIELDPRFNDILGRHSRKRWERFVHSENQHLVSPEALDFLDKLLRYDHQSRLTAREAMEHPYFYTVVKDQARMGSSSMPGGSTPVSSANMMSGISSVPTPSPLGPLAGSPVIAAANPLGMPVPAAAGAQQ
recombinant human CK2, sequence (P67870 whole entry partner): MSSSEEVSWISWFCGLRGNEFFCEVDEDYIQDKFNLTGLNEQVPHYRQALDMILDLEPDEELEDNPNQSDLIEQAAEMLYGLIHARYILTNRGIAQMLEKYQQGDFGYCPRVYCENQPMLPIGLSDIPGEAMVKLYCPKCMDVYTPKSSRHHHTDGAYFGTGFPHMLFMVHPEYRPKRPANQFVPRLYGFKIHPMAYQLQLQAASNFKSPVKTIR

Structure (SMILES)	inhibition at 0.5 µM ([1]; cell-free)	IC50 [2, 6]	inhibition at 0.5 µM ([3]; cell-free)	IC50 [2, 7]	inhibition at 0.5 µM ([3]; cell-free assay)	IC50 [4]	IC50 [5]	IC50 ([3]; cell-free assay)	inhibition at 0.5 µM ([1]; cell-free assay)
O=C(Cc1cccc(Nc2nc3cc(C(=O)O)ccc3c3sccc23)c1)NC1CC1	51.2%	> 10 µM	19.1%	–	–	–	–	–	–
COC(=O)c1ccc2c(c1)nc(Nc1cccc(CC(=O)O)c1)c1ccsc12	-6.27%	> 10 µM	8.94%	–	–	–	–	–	–
CN(C)C(=O)Cc1cccc(Nc2nc3cc(C(=O)O)ccc3c3sccc23)c1	55.4%	> 10 µM	42.5%	–	–	–	–	–	–
O=C(O)c1ccc2c(c1)nc(Nc1cccc(-c3ccccc3)c1)c1ccsc12	65.8%	> 10 µM	4.58%	–	–	–	–	–	–
COC(=O)c1ccc2c(c1)nc(Nc1ccccc1)c1nc(SC)ncc12	6.43%	9.56 µM	-26.7%	–	–	–	–	–	–
COC(=O)c1ccc2c(c1)nc(Nc1ccccc1)c1nc(S(C)(=O)=O)ncc12	-44.2%	0.967 µM	-27.8%	–	–	–	–	–	–
O=C(O)c1ccc2c(c1)nc(NN1CCCCC1)c1ccncc12	–	–	–	> 10 µM	–	> 10 µM	–	> 1.1 µM	–
CN(c1ccccc1)c1nc2cc(C(=O)O)ccc2c2cnccc12	–	–	–	> 10 µM	71.2%	> 10 µM	–	0.439 µM	89%
Cc1cc(Nc2nc3cc(C(=O)O)ccc3c3cnccc23)c2ccccc2n1	–	–	–	> 10 µM	24.9%	> 10 µM	–	–	96.6%
O=C(O)c1ccc2c(c1)nc(Nc1ccccc1Cl)c1ccncc12	–	–	–	> 10 µM	70.7%	> 10 µM	–	0.372 µM	97.3%
O=C(O)c1ccc2c(c1)nc(N1CCc3ccccc31)c1ccncc12	–	–	–	> 10 µM	9.63%	> 10 µM	–	–	90.2%
O=C(O)c1ccc2c(c1)nc(Nc1ccccc1OC(F)(F)F)c1ccncc12	–	–	–	> 10 µM	32.5%	> 10 µM	–	–	92%
O=C(O)c1ccc2c(c1)nc(Nc1cccc(Cl)c1)c1ncccc12	–	–	–	> 10 µM	16.7%	> 10 µM	–	–	40%
O=C(O)c1ccc2c(c1)nc(Nc1ccc(F)c(Cl)c1)c1ncccc12	–	–	–	> 10 µM	-15.5%	> 10 µM	–	–	12.3%
O=C(O)c1ccc2c(c1)nc(Nc1ccccc1)c1ncccc12	–	–	–	> 10 µM	–	> 10 µM	–	–	–
O=C(O)c1ccc2c(c1)nc(NCCNc1ccccc1)c1ccncc12	–	–	–	> 10 µM	–	> 10 µM	0.185 µM	0.7 µM	–
CN(c1ccccc1)c1nc2cc(C(=O)O)ccc2c2cnc(N)nc12	–	–	–	> 10 µM	–	> 10 µM	> 10 µM	0.223 µM	–
COc1cc(Nc2nc3cc(C(=O)O)ccc3c3cnccc23)cc(OC)c1	–	–	–	> 10 µM	72%	> 10 µM	6.94 µM	0.152 µM	99.4%
N#Cc1ccc2c(c1)nc(NCC(O)c1ccccc1)c1ccsc12 (centres unmarked)	–	–	–	> 10 µM	6.38%	> 10 µM	> 10 µM	–	-9.58%
N#Cc1ccc2c(c1)nc(NCCn1cccc1)c1ccsc12	–	–	–	> 10 µM	-25.6%	6.07 µM	> 10 µM	–	-22.3%
Cc1nccn1CCNc1nc2cc(C#N)ccc2c2sccc12	–	–	–	> 10 µM	8.62%	> 10 µM	> 10 µM	–	-15.7%
N#Cc1ccc2c(c1)nc(NCCn1ccnc1)c1ccsc12	–	–	–	> 10 µM	-0.12%	> 10 µM	> 10 µM	–	-14.9%
Cc1nccn1CCNc1nc2cc(-c3nnn[nH]3)ccc2c2sccc12	–	–	–	> 10 µM	81.5%	> 10 µM	> 10 µM	0.119 µM	62.1%
N#Cc1ccc2c(c1)nc(N1CCC(N3CCOCC3)CC1)c1ccsc12	–	–	–	> 10 µM	0.408%	> 10 µM	> 10 µM	–	-34.7%
N#Cc1ccc2c(c1)nc(NCc1ccc(C(N)=O)cc1)c1ccsc12	–	–	–	> 10 µM	-23.8%	> 10 µM	> 10 µM	–	-4.69%

Further lines, results first:

inhibition at 0.5 µM ([1]; cell-free)	IC50 [2, 6]	inhibition at 0.5 µM ([3]; cell-free)	IC50 [2, 7]	inhibition at 0.5 µM ([3]; cell-free assay)	IC50 [4]	IC50 [5]	IC50 ([3]; cell-free assay)	inhibition at 0.5 µM ([1]; cell-free assay)	Structure (SMILES)
–	–	–	> 10 µM	9.67%	> 10 µM	–	–	–	CSc1ncc2c(n1)c(Nc1ccccc1C)nc1cc(C(=O)O)ccc12
–	–	–	4.36 µM	9.84%	0.334 µM	–	–	–	COC(=O)c1ccc2c(c1)nc(N(C)c1ccccc1)c1nc(S(C)(=O)=O)ncc12
–	–	–	> 10 µM	31.4%	> 10 µM	–	–	–	CN(c1ccccc1)c1nc2cc(C(=O)O)ccc2c2cnc(NC3CC3)nc12
–	–	–	10 µM	31.9%	0.769 µM	0.165 µM	–	–	Cc1ccccc1Nc1nc2cc(C(=O)O)ccc2c2cnc(NC3CC3)nc12
–	–	–	9.74 µM	12.6%	> 10 µM	–	–	–	CNC(=O)c1ccc2c(c1)nc(N(C)c1ccccc1)c1nc(NC3CC3)ncc12
–	–	–	> 10 µM	16.1%	> 10 µM	–	–	–	CN(c1ccccc1)c1nc2cc(C(=O)NC3CC3)ccc2c2cnc(NC3CC3)nc12
–	–	–	5.19 µM	-0.201%	> 10 µM	–	–	–	CN(C)C(=O)c1ccc2c(c1)nc(N(C)c1ccccc1)c1nc(NC3CC3)ncc12
–	–	–	1.61 µM	4.21%	> 10 µM	–	–	–	CNC(=O)c1ccc2c(c1)nc(Nc1ccccc1C)c1nc(NC3CC3)ncc12
–	–	–	> 10 µM	0.71%	> 10 µM	–	–	–	Cc1ccccc1Nc1nc2cc(C(=O)N(C)C)ccc2c2cnc(NC3CC3)nc12
–	–	–	> 10 µM	5.72%	> 10 µM	–	–	–	Cc1ccccc1Nc1nc2cc(C(=O)NC3CC3)ccc2c2cnc(NC3CC3)nc12
–	–	–	> 10 µM	38.8%	> 10 µM	–	–	–	O=C(O)c1ccc2c(c1)nc(N1CCc3c([nH]c4ccccc34)C1)c1ccncc12
–	–	–	> 10 µM	51.8%	> 10 µM	–	> 1.1 µM	–	O=C(O)c1ccc2c(c1)nc(NCCn1ccnc1)c1ccncc12
–	–	–	> 10 µM	97.1%	> 10 µM	> 10 µM	0.287 µM	–	Cc1nccn1CCNc1nc2cc(C(=O)O)ccc2c2cnccc12
–	–	–	> 10 µM	-7.8%	> 10 µM	–	–	55.9%	O=C(O)c1ccc2c(c1)nc(NCC1CCN1Cc1ccccc1)c1ccncc12 (centres unmarked)
–	–	–	> 10 µM	-32.4%	> 10 µM	–	–	-8.65%	COC(=O)c1ccc2c(c1)nc(NN)c1ccncc12
–	–	–	> 10 µM	1.37%	> 10 µM	–	–	94.8%	O=C(O)c1ccc2c(c1)nc(Nc1ccn[nH]1)c1ccncc12
–	–	–	> 10 µM	45.8%	> 10 µM	–	–	96.2%	Cn1nc(C2CC2)cc1Nc1nc2cc(C(=O)O)ccc2c2cnccc12
–	–	–	> 10 µM	34.9%	> 10 µM	–	–	94.7%	CONc1nc2cc(C(=O)O)ccc2c2cnccc12
–	–	–	> 10 µM	55.7%	> 10 µM	–	0.897 µM	84.7%	CON(C)c1nc2cc(C(=O)O)ccc2c2cnccc12
–	–	–	4.65 µM	-6.14%	> 10 µM	7.87 µM	–	-14.1%	CN1CCC(N(C)c2nc3cc(C#N)ccc3c3sccc23)C1 (centres unmarked)
–	–	–	1.41 µM	-3.97%	3.04 µM	1.84 µM	–	-20.3%	CN(CCN1CCCC1)c1nc2cc(C#N)ccc2c2sccc12
–	–	–	1.42 µM	20.8%	5.06 µM	3.23 µM	–	-17.5%	CN1CCCC(Nc2nc3cc(C#N)ccc3c3sccc23)C1 (centres unmarked)
–	–	–	3.37 µM	23.8%	> 10 µM	7.81 µM	–	-30.5%	CN(C)CCCNc1nc2cc(C#N)ccc2c2sccc12
–	–	–	3.92 µM	15.3%	7.98 µM	3.55 µM	–	-4.72%	CN(C)CCCN(C)c1nc2cc(C#N)ccc2c2sccc12
–	–	–	0.511 µM	-3.15%	1.87 µM	1.07 µM	–	64.1%	CN(C)CCN(C)c1nc2cc(C#N)ccc2c2sccc12
–	–	–	6.75 µM	-1.38%	> 10 µM	9.88 µM	–	-3.98%	CC1(C)CC(Nc2nc3cc(C#N)ccc3c3sccc23)CC(C)(C)N1
–	–	–	6.57 µM	20.3%	> 10 µM	6.05 µM	–	-0.522%	CN(C)C1CCN(c2nc3cc(C#N)ccc3c3sccc23)CC1
–	–	–	4.41 µM	8.14%	6.5 µM	3.74 µM	–	0.724%	CN1CCCC1CNc1nc2cc(C#N)ccc2c2sccc12 (centres unmarked)
–	–	–	5.66 µM	35.7%	6.94 µM	3.36 µM	–	-6.67%	N#Cc1ccc2c(c1)nc(N1CCC(N3CCCC3)CC1)c1ccsc12
